# “Also recorded” adds a separate entry of the source.
# Test system: VCAM-1 expression in human umbilical vein endothelial cells (HUVEC)
# Experiment: Cell-based ELISA of VCAM-1 expression in cytokine-stimulated, gene-transduced endothelial cells
# Text: Cytokines, antibodies, and cell culture. Recombinant human IFN-γ, TNF-α, and IL-1βwere from R&D Systems, Murine IgG from Sigma, Mouse anti-human ICAM-1 (clone B4H10) from Beckman Coulter and mouse anti-human E-selectin (clone ENA1) from HyCult Biotechnology. Unconjugated mouse antibodies against human VCAM-1 (clone 51-10C9), CD31 (clone WM-59), HLA-DR (clone G46-6), MIG (clone B8-77), and MCP-1 (clone 5D3-F7) were from BD Biosciences. Mouse anti-human IL-8 (clone 6217.111) was from R&D Systems. PD098059 was from Calbiochem. EGM-2 medium and required supplements were from Clonetics. Human umbilical vein endothelial cells (HUVEC) were from Clonetics; cultured in microtiter plates in EGM-2 medium containing manufacturer's supplements plus 2% heat-inactivated fetal bovine serum. […] PD098059 (3.7 μM final concentration) was added 1 hr before stimulation and was present during the whole 24 hr stimulation period.
# Cell-based ELISAs. Cell-based ELISAs were carried out as previously described. Briefly, microtiter plates containing treated and stimulated HUVEC were blocked, and then incubated with primary antibodies or isotype control antibodies (0.01-0.5 μg/ml) for 1 hr. After washing, plates were then incubated with a peroxidase-conjugated anti-mouse IgG secondary antibody (Promega) for 1 hr. Plates were washed and developed with TMB substrate (Clinical Science Products) and the optical density (OD) was read at 450 nm (subtracting the background absorbance at 650 nm) on a SpectraMAX 190 plate reader (Molecular Devices).
# Retroviral gene transduction. Test genes were cloned into a vector derived from the MoMLV-based vector pFB (Stratagene) downstream of the MoMLV LTR. A truncated form of the human nerve growth factor receptor (NGFR) preceded by an internal ribosomal entry site was used as a marker gene. Retroviral vector plasmid DNA was transfected into AmphoPack-293 cells (Clontech) by a modified calcium phosphate method according to the manufacturer's protocol (MBS transfection kit, Stratagene). Cell supernatants were harvested 48 hours post-transfection, filtered to remove cell debris (0.45 μm), and transferred onto exponentially growing HUVEC. DEAE dextran (10 μg/ml) was added to facilitate transduction. After 5-8 hr, the viral supernatant was removed and cells were cultured for an additional 40 hours. Gene transfer efficiency was determined by flow cytometric analysis using an NGFR-specific monoclonal antibody and was typically ≧70%.
Compound,"Effect on VCAM-1 expression when the RAS/MAPK pathway is activated (HUVEC over-expressing MYD88, RAS*, MEK1* or MEK2* or IL-1β-stimulated, PD098059 3.7 μM added 1 hr before 24 hr cytokine stimulation)","Effect on VCAM-1 expression in TNF-α-treated cells (HUVEC treated with TNF-α, PD098059 3.7 μM added 1 hr before 24 hr stimulation)",Effect of IL-1β on TNF-induced VCAM-1 expression (HUVEC stimulated with 10 ng/ml TNF + 1 ng/ml IL-1),"Effect of IL-1β on TNF-induced VCAM-1 expression (HUVEC stimulated with 10 ng/ml TNF + 1 ng/ml IL-1, listed as IL-1)"
COc1cccc(-c2cc(=O)c3ccccc3o2)c1N [PD098059],reversed the effect of MYD88 or RAS* over-expression; also recorded: increases VCAM-1 expression,no effect,–,–
"IL-1β: Recombinant human IL-1β from R&D Systems, pro-inflammatory cytokine",–,–,reduce the level of VCAM-1 expression,modulates the VCAM-1 expression induced by TNF
